The assay addresses T1, Human skin fibroblasts (Homo sapiens, UniProt P04035).
T1 sequence (P04035 1-888): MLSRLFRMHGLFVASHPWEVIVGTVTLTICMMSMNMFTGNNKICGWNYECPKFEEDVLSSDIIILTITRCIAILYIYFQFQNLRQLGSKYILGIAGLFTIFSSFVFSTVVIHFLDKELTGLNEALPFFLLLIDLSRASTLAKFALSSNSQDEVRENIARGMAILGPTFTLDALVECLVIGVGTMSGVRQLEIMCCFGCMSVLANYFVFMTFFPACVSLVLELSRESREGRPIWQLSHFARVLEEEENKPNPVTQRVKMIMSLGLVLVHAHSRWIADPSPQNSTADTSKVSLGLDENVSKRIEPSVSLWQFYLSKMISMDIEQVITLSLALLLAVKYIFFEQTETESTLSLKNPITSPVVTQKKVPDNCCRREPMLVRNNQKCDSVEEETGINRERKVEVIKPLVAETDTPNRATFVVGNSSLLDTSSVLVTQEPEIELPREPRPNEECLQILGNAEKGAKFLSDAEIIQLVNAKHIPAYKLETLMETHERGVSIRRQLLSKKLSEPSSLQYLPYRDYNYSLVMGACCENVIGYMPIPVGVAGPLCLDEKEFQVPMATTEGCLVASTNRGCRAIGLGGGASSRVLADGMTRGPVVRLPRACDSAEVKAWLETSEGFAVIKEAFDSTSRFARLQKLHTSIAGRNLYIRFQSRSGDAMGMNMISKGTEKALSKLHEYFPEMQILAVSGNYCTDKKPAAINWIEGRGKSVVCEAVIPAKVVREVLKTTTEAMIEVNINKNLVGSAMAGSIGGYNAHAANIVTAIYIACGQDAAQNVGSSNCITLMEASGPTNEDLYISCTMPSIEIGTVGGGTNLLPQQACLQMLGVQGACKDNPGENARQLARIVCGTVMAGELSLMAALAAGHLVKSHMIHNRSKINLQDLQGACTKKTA
Briefly: Cholesterol Synthesis in Human Skin Fibroblasts (14C-acetate incorporation into cholesterol). It counts as cell-based. The settings on record: inhibition of 14C-acetate incorporation into cholesterol; 30 minutes preincubation, 4 hours with acetate; read-out: Fibroblasts 150. On the procedure: 3) Cholesterol Synthesis in Human Skin Fibroblasts
Compound selectivity favoring greater inhibitory activity in hepatic tissue would be an attribute for a cholesterol synthesis inhibitor. Therefore, in addition to evaluating cholesterol synthesis inhibitors in hepatocytes, these compounds are also tested for their activity as inhibitors of cholesterol synthesis in cultured fibroblasts. […]
a. Human Skin Fibroblast Cultures
Human skin fibroblasts (passage 7-27) are grown in Eagles' minimal essential medium (EM) containing 10% fetal calf serum. For each experiment, stock cultures are trypsonized to disperse the cell monolayer, counted, and plated in 35 mm tissue culture wells (5x10^S cells/2.0 ml). […]
Induced fibroblast cultures are washed with EMEM100 (Earle's minimal essential medium). […] The organic phase is dried under nitrogen, and the residue resuspended in chloroform:methanol (2:1) (100 µl), and the total sample spotted on silica gel (LK6D) thin-layer plates, V, VO and analyzed as described for hepatocytes.
Inhibition of cholesterol synthesis is determined by comparing the percent of label in the cholesterol peak from control and drug-treated cultures. Results are expressed as 150 values, and are derived from composite dose response curves from two or more experiments. A 95% confidence interval for the 150 value is also calculated from the composite dose response curves.

Data on one substance can be found in patent EP0463456A1, “Phosphorus-containing HMG-CoA reductase inhibitors, new intermediates and their use” (E.R. SQUIBB & SONS, INC., priority 1990, dated 1992).

In the case of “(S)-4-[[[4-(4-Fluorophenyl)-1,2-bis(1-methylethyl)-5-phenyl-1H-pyrrol-3-yl]-ethynyl]hydroxyphosphinyl]-3-hydroxybutanoic acid, dilithium salt [SQ 34,346]”, the IC50 was determined as 2500 nM.
